Tests used:
Assay in all cases: relative viability (nuclei count vs DMSO), 5 days (fraction); higher = more cells survive
[1] = compound: CCc1cnn2c(NCc3ccc[n+]([O-])c3)cc(N3CCCC[C@H]3CCO)nc12 [Dinaciclib] + CC1(C)CCC(c2ccc(Cl)cc2)=C(CN2CCN(c3ccc(C(=O)NS(=O)(=O)c4ccc(N[C@H](CCN5CCOCC5)CSc5ccccc5)c(S(=O)(=O)C(F)(F)F)c4)cc3)CC2)C1 [Navitoclax] (partner 0.5 µM)
Summary of the method: (§1)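 Lung cancer cell lines were seeded in 1536-well plates and dosed by pin tool the next day, with either a single drug or a fixed anchor-drug dose combined with five library-drug doses (not always all listed) spaced in √10 steps. Five days later, one step fixed the cells and stained their nuclei (final 0.05% Triton X-100, 1% formaldehyde, 1 ug/ml Hoechst), and nuclei were counted on 4× images. Relative viability is the nuclei count in treated wells divided by the count in vehicle wells, and each value is the median of duplicate plates.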

[2] = compound: CCc1cnn2c(NCc3ccc[n+]([O-])c3)cc(N3CCCC[C@H]3CCO)nc12 [Dinaciclib] + COc1cc2c(Oc3ccc(NC(=O)C4(C(=O)Nc5ccc(F)cc5)CC4)cc3F)ccnc2cc1OCCCN1CCOCC1 [Foretinib] (partner 0.25 µM)
Summary of the method: as §1

[3] = compound: CCc1cnn2c(NCc3ccc[n+]([O-])c3)cc(N3CCCC[C@H]3CCO)nc12 [Dinaciclib] + COc1cccc2cc(-c3nc([C@H]4CC[C@H](C(=O)O)CC4)n4ncnc(N)c34)[nH]c12 [OSI-027] (partner 0.5 µM)
Summary of the method: as §1

[4] = compound: CCc1cnn2c(NCc3ccc[n+]([O-])c3)cc(N3CCCC[C@H]3CCO)nc12 [Dinaciclib] + Cc1cc(Nc2cc(N3CCN(C)CC3)nc(Sc3ccc(NC(=O)C4CC4)cc3)n2)n[nH]1 [Tozasertib] (partner 0.1 µM)
Summary of the method: as §1

[5] = compound: CCc1cnn2c(NCc3ccc[n+]([O-])c3)cc(N3CCCC[C@H]3CCO)nc12 [Dinaciclib] + Nc1nc2[nH]cc(CCc3ccc(C(=O)N[C@@H](CCC(=O)O)C(=O)O)cc3)c2c(=O)[nH]1 [Pemetrexed] (partner 0.2 µM)
Summary of the method: as §1

Row | Cell Line | relative viability ([1]; first compound 0.009487 µM) | relative viability ([1]; first compound 0.03 µM) | relative viability ([1]; first compound 0.09487 µM) | relative viability ([1]; first compound 0.3 µM) | relative viability ([2]; first compound 0.009487 µM) | relative viability ([2]; first compound 0.03 µM) | relative viability ([2]; first compound 0.09487 µM) | relative viability ([2]; first compound 0.3 µM) | relative viability ([3]; first compound 0.009487 µM) | relative viability ([3]; first compound 0.03 µM) | relative viability ([3]; first compound 0.09487 µM) | relative viability ([3]; first compound 0.3 µM) | relative viability ([4]; first compound 0.009487 µM) | relative viability ([4]; first compound 0.03 µM) | relative viability ([4]; first compound 0.09487 µM) | relative viability ([4]; first compound 0.3 µM) | relative viability ([5]; first compound 0.009487 µM) | relative viability ([5]; first compound 0.03 µM) | relative viability ([5]; first compound 0.09487 µM) | relative viability ([5]; first compound 0.3 µM)
1 | HCC-78 | 0.763 | 0.35 | 0.107 | 0.136 | 0.613 | 0.386 | 0.174 | 0.18 | 0.349 | 0.347 | 0.205 | 0.193 | 0.345 | 0.282 | 0.144 | 0.138 | 0.895 | 0.91 | 0.858 | 0.927
2 | HCC-366 | 1.01 | 0.11 | 0.0149 | 0.0168 | 0.851 | 0.0324 | 0.042 | 0.0348 | 0.924 | 0.0747 | 0.0323 | 0.0369 | 0.136 | 0.0294 | 0.0259 | 0.0198 | 0.171 | 0.0414 | 0.0345 | 0.0329
3 | HCC-827 | 1.02 | 0.699 | 0.127 | 0.108 | 1.09 | 0.682 | 0.147 | 0.13 | 0.887 | 0.565 | 0.129 | 0.116 | 0.417 | 0.251 | 0.101 | 0.117 | 0.27 | 0.129 | 0.122 | 0.13
4 | HOP-62 | 0.967 | 0.126 | 0.0367 | 0.042 | 1.11 | 0.376 | 0.0923 | 0.0743 | 0.72 | 0.446 | 0.139 | 0.0825 | 0.293 | 0.13 | 0.0833 | 0.075 | 0.255 | 0.0991 | 0.094 | 0.0662
5 | IA-LM | 0.695 | 0.0044 | 0.0033 | 0.0072 | 1.01 | 0.0352 | 0.0148 | 0.0125 | – | – | – | – | – | – | – | – | – | – | – | –
6 | LC-2-ad | 0.401 | 0.0677 | 0.067 | 0.0747 | 0.824 | 0.248 | 0.205 | 0.195 | 0.58 | 0.251 | 0.247 | 0.227 | 0.363 | 0.242 | 0.19 | 0.219 | 0.28 | 0.158 | 0.14 | 0.131
7 | LCLC-97TM1 | 0.44 | 0.108 | 0.162 | 0.114 | 0.705 | 0.14 | 0.132 | 0.107 | 0.298 | 0.167 | 0.122 | 0.113 | 0.172 | 0.115 | 0.128 | 0.112 | 0.152 | 0.0671 | 0.0619 | 0.062
8 | LCLC-103H | – | – | – | – | 0.834 | 0.623 | 0.0915 | 0.094 | 0.451 | 0.483 | 0.111 | 0.109 | 0.487 | 0.315 | 0.0924 | 0.0865 | 0.465 | 0.566 | 0.223 | 0.217
9 | LK-2 | 0.761 | 0.123 | 0.0967 | 0.102 | 1.13 | 0.267 | 0.164 | 0.142 | 0.218 | 0.196 | 0.16 | 0.131 | 0.2 | 0.154 | 0.151 | 0.168 | 0.38 | 0.0867 | 0.0811 | 0.0749
10 | LOU-NH91 | 0.707 | 0.254 | 0.151 | 0.138 | 0.971 | 0.406 | 0.214 | 0.216 | 0.787 | 0.543 | 0.227 | 0.222 | 0.656 | 0.305 | 0.178 | 0.174 | 0.443 | 0.276 | 0.256 | 0.234
11 | LU99A | 0.363 | 0.13 | 0.126 | 0.121 | 0.545 | 0.183 | 0.128 | 0.154 | 0.284 | 0.202 | 0.153 | 0.144 | 0.247 | 0.142 | 0.143 | 0.148 | 0.205 | 0.16 | 0.132 | 0.137
12 | NCI-H358 | – | – | – | – | 0.493 | 0.0864 | 0.0847 | 0.0882 | 0.49 | 0.0844 | 0.0665 | 0.0776 | 0.103 | 0.0813 | 0.0924 | 0.0857 | 0.186 | 0.108 | 0.0948 | 0.0955
13 | NCI-H522 | – | – | – | – | – | – | – | – | 0.76 | 0.517 | 0.439 | 0.382 | 0.488 | 0.418 | 0.372 | 0.278 | 1.32 | 1.14 | 0.371 | 0.25
14 | NCI-H650 | – | – | – | – | 1.02 | 0.182 | 0.165 | 0.142 | 0.57 | 0.203 | 0.158 | 0.15 | 0.493 | 0.183 | 0.154 | 0.153 | 0.877 | 0.305 | 0.115 | 0.139
15 | NCI-H661 | – | – | – | – | 0.851 | 0.213 | 0.202 | 0.199 | 0.637 | 0.163 | 0.168 | 0.168 | 0.339 | 0.183 | 0.199 | 0.18 | 0.798 | 0.365 | 0.214 | 0.151
16 | NCI-H727 | 0.37 | 0.0912 | 0.0827 | 0.0949 | 1.05 | 0.283 | 0.259 | 0.249 | 0.468 | 0.317 | 0.285 | 0.326 | 0.538 | 0.287 | 0.276 | 0.282 | – | – | – | –
17 | NCI-H1792 | 0.678 | 0.174 | 0.0483 | 0.0639 | – | – | – | – | 0.729 | 0.539 | 0.36 | 0.174 | – | – | – | – | 0.561 | 0.14 | 0.0501 | 0.0374
18 | SW 900 | – | – | – | – | 0.874 | 0.462 | 0.0641 | 0.0639 | 0.578 | 0.103 | 0.0689 | 0.098 | 0.707 | 0.149 | 0.0868 | 0.0829 | 0.448 | 0.195 | 0.166 | 0.153

From the supplement of paper PMC10307832
